Results as given in patent US11420970B1 (NOVARTIS AG, priority 2019, dated 2022).
Like-named read-outs stand apart in the source and are kept apart here.

What was measured:
NSD2 [1-1365] = NSD2 [1-1365] (Homo sapiens (Human), UniProt O96028); experiment: LC-MS/MS-based NSD2 enzymatic assay (SAH production); assay type: biochemical; conditions: read-out: NSD2 IC50
How it was run: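 SAH formed was measured by LC-MS/MS using d4-SAH as internal standard and an SAH calibration curve. Compounds were preincubated 20 min with NSD2 [1-1365] and SAM; mouse-liver nucleosome then started a 90 min room-temperature reaction (8 nM enzyme, 1 μM SAM, 400 nM nucleosome final, pH 8.0), stopped with TFA.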

[1] = test system: cellular H3K36me2 level in multiple myeloma cell line KMS11 (t(4;14)+); experiment: H3K36me2 cellular FRET assay in KMS11-Par line; assay type: cell-based; conditions: Homo sapiens, KMS-11, KMS11-Par line, cellular H3K36me2 level, FRET; read-out: H3K36me2 FRET in KMS11-Par
Method: H3K36Me2 Cellular FRET Assay in KMS11-Par Line
Fluorescence Resonance Energy Transfer (FRET) assay was used to test the ability of candidate compound to reduce cellular H3K36me2 level in multiple myeloma cell line KMS11 (t(4;14)+) (Horizon Discovery Ltd.).
Cells were treated with tested compounds at the desired concentration for 48 hours. […] Histone extract was incubated with Eu labeled anti-H3K36me2 antibody (abcam #ab ab9049) and d2 labeled anti-H3 antibody (abcam #ab1791) for 1 hour at room temperature. A Eu labeled anti-H3 antibody (CISBIO #64CUS000) was used for loading control. The abundancy of H3K36me2 or total H3 was measured by fluorescence signal on Perkin Elmer Envison machine.

[2] = test system: cellular H3K36me2 level in thyroid carcinoma cell line CGTH-W-1 (NSD2 E1099K); experiment: H3K36me2 cellular ELISA assay in CGTH-W-1 line; assay type: cell-based; conditions: Homo sapiens, CGTH-W-1, 72 h, read-out: H3K36me2 ELISA in CGTH-W-1
How it was run: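 After 72 h compound treatment of NSD2 E1099K-mutant CGTH-W-1 cells, H3K36me2 and total H3 were quantified by ELISA with chemiluminescent read-out. A parallel-seeded plate gave cell viability by CellTiter-Glo.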

[3] = test system: cellular H3K36me2 level in multiple myeloma cell line KMS11 (t(4;14)+); experiment: H3K36me2 cellular ELISA assay in KMS11-Par line; assay type: cell-based; conditions: Homo sapiens, KMS-11, ELISA, read-out: H3K36me2 ELISA in KMS11-Par
How it was run: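 After 72 h compound exposure, HCl-extracted histones from KMS11 (t(4;14)+) cells were probed by ELISA for H3K36me2 against total H3 with a chemiluminescence read-out. Cells were plated at 1,250/well in Opti-MEM plus B-27 and N2 the day before. A parallel CellTiter-Glo plate tracked viability.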

[4] = NSD2 biochemical activity, class symbols
[5] = KMS11-Par line (t(4;14)+), 72 hours treatment

NSD2 [1-1365], sequence (O96028 whole entry): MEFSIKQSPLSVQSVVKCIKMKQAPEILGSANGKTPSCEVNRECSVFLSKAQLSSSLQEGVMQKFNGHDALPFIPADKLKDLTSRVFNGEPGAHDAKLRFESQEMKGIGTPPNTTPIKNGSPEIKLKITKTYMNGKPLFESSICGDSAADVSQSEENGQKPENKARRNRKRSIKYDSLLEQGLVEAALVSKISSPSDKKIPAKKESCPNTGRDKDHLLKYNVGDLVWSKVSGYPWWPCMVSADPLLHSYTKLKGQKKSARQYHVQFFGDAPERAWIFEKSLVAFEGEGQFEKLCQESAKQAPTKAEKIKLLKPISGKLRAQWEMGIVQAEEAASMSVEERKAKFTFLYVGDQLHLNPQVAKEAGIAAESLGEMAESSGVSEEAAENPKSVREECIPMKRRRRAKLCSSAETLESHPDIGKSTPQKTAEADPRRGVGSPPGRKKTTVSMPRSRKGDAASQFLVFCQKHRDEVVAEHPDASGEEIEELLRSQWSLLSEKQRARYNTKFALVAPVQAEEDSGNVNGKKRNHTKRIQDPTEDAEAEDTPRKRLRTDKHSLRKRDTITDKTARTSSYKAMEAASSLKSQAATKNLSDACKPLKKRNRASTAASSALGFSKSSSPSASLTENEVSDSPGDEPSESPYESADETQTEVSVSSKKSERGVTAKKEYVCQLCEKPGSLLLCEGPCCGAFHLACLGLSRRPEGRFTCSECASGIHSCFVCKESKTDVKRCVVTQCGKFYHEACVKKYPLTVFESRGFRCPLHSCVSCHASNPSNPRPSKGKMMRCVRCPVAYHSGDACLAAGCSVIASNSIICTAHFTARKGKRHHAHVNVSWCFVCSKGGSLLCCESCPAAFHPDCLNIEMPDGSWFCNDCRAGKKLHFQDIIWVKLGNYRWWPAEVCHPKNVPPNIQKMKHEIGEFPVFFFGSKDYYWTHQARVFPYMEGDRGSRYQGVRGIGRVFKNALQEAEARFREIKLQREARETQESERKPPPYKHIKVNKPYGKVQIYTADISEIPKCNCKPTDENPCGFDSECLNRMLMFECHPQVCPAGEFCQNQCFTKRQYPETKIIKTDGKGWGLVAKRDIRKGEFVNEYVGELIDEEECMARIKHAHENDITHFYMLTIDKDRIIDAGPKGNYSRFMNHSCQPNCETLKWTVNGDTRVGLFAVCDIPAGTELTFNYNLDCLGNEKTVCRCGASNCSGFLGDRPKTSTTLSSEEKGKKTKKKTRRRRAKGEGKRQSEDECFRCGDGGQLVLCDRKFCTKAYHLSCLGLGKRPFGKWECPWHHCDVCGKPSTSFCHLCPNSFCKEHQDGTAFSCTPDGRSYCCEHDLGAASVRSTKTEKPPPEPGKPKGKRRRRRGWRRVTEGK

Compound | IC50 (NSD2 [1-1365]; [4]) | IC50 [1] | IC50 [2] | IC50 [3, 5] | IC50 (NSD2 [1-1365]) | IC50 ([3]; KMS11-Par line, 72 hours)
Nc1ncnc2c1ncn2Cc1cc(-c2ccccc2F)ncc1N1CC[C@@H](F)[C@@H](N)C1 [Example 2, 9-((5-((3S,4R)-3-amino-4-fluoropiperidin-1-yl)-2-(2-fluorophenyl)pyridin-4-yl)methyl)-9H-purin-6-amine] | 10 to 1000 nM | 11100 nM | – | – | – | –
COc1ccc(-c2cc(Cn3cnc4c(N)ncnc43)c(N3CCC[C@@H](N)C3)cn2)c(F)c1 [Example 6, (R)-9-((5-(3-aminopiperidin-1-yl)-2-(2-fluoro-4-methoxyphenyl)pyridin-4-yl)methyl)-9H-purin-6-amine] | 10 to 1000 nM | 10000 nM | – | – | – | –
Nc1ncnc2c1ncn2Cc1cc(-c2ccc(F)cc2)ncc1N1CCC[C@](N)(COCC(F)(F)F)C1 [Example 45, (R)-9-((5-(3-amino-3-((2,2,2-trifluoroethoxy)methyl)piperidin-1-yl)-2-(4-fluorophenyl)pyridin-4-yl)methyl)-9H-purin-6-amine] | 10 to 1000 nM | 705 nM | – | – | – | –
Nc1ncnc2c1ncn2Cc1cc(-c2ccc(F)cc2F)ncc1N1CCC[C@](N)([C@@H](O)C(F)F)C1 [Example 147, (R)-1-((R)-3-amino-1-(4-((6-amino-9H-purin-9-yl)methyl)-6-(2,4-difluorophenyl)pyridin-3-yl)piperidin-3-yl)-2,2-difluoroethan-1-ol] | 10 to 1000 nM | – | 44 nM | 2490 nM | – | –
COc1cc(F)ccc1-c1cc(Cn2cnc3c(N)ncnc32)c(N2CCC[C@](N)([C@@H](O)C(F)F)C2)cn1 [Example 174, (R)-1-((R)-3-amino-1-(4-((6-amino-9H-purin-9-yl)methyl)-6-(4-fluoro-2-methoxyphenyl)pyridin-3-yl)piperidin-3-yl)-2,2-difluoroethan-1-ol] | – | – | 1160 nM | – | 10 to 1000 nM | 10600 nM
Nc1ncnc2c1ncn2Cc1cc(-c2ccc(F)c(F)c2)ncc1N1CCC[C@](N)(c2cccc(F)n2)C1 [Example 201, (R)-9-((5-(3-amino-3-(6-fluoropyridin-2-yl)piperidin-1-yl)-2-(3,4-difluorophenyl)pyridin-4-yl)methyl)-9H-purin-6-amine] | – | – | 123 nM | – | 1 to 10 nM | 286 nM
Cc1ccc(-c2cc(Cn3cnc4c(N)ncnc43)c(N3CCCC(N)(c4cccc(Cl)n4)C3)cn2)cn1 (stereo not drawn) [Example 229, 9-((5-(3-amino-3-(6-chloropyridin-2-yl)piperidin-1-yl)-6′-methyl-[2,3′-bipyridin]-4-yl)methyl)-9H-purin-6-amine] | – | – | 1970 nM | – | 10 to 1000 nM | 7490 nM
Nc1ncnc2c1ncn2Cc1cc(-c2ccc(F)c(F)c2)ncc1N1CCCC(N)(C(=O)C2CCC2)C1 (stereo not drawn) [Example 105, (3-amino-1-(4-((6-amino-9H-purin-9-yl)methyl)-6-(3,4-difluorophenyl)pyridin-3-yl)piperidin-3-yl)(cyclobutyl)methanone] | 10 to 1000 nM | – | 67 nM | 140 nM | – | –
COc1cnc(-c2cc(Cn3cnc4c(N)ncnc43)c(N3CCC[C@](N)(c4cccc(Cl)n4)C3)cn2)cc1F [Example 243, (R)-9-((5-(3-amino-3-(6-chloropyridin-2-yl)piperidin-1-yl)-4′-fluoro-5′-methoxy-[2,2′-bipyridin]-4-yl)methyl)-9H-purin-6-amine] | – | – | 541 nM | – | 1 to 10 nM | 2440 nM
Nc1ncnc2c1ncn2Cc1cc(-c2cc(F)c(F)cc2F)ncc1N1CCC[C@](N)([C@@H]2COCCO2)C1 [Example 290, 9-((5-((R)-3-amino-3-((R)-1,4-dioxan-2-yl)piperidin-1-yl)-2-(2,4,5-trifluorophenyl)pyridin-4-yl)methyl)-9H-purin-6-amine] | – | – | 421 nM | – | 10 to 1000 nM | 954 nM
Nc1ncnc2c1ncn2Cc1cc(-c2cc(F)c(OC(F)F)cc2F)ncc1N1CCC[C@](N)([C@H](O)C(F)F)C1 [Example 128, (S)-1-((R)-3-amino-1-(4-((6-amino-9H-purin-9-yl)methyl)-6-(4-(difluoromethoxy)-2,5-difluorophenyl)pyridin-3-yl)piperidin-3-yl)-2,2-difluoroethan-1-ol] | 1 to 10 nM | – | 60 nM | 693 nM | – | –
CC(C)C(=O)[C@@]1(N)CCCN(c2cnc(-c3ccc(F)c(F)c3)cc2Cn2cnc3c(N)ncnc32)C1 [Example 104, (R)-1-(3-amino-1-(4-((6-amino-9H-purin-9-yl)methyl)-6-(3,4-difluorophenyl)pyridin-3-yl)piperidin-3-yl)-2-methylpropan-1-one] | 10 to 1000 nM | – | 26 nM | 60 nM | – | –
Nc1ncnc2c1ncn2Cc1cc(-c2ccc(F)cc2)ncc1N1CCC[C@](N)(c2cccc(C3CC3)n2)C1 [Example 182, (R)-9-((5-(3-amino-3-(6-cyclopropylpyridin-2-yl)piperidin-1-yl)-2-(4-fluorophenyl)pyridin-4-yl)methyl)-9H-purin-6-amine] | – | – | 97.5 nM | – | 1 to 10 nM | 142 nM
Nc1ncnc2c1ncn2Cc1cc(-c2ccc(F)c(F)c2)ncc1N1CCC[C@](N)([C@H](O)C(F)(F)F)C1 [Example 299, (S)-1-((R)-3-amino-1-(4-((6-amino-9H-purin-9-yl)methyl)-6-(3,4-difluorophenyl)pyridin-3-yl)piperidin-3-yl)-2,2,2-trifluoroethan-1-ol] | – | – | 1160 nM | – | 10 to 1000 nM | 9830 nM
Nc1ncnc2c1ncn2Cc1cc(-c2ccc(F)c(F)c2)ncc1N1CCC[C@](N)(c2cc(O)cc(F)n2)C1 [Example 206, (R)-2-(3-amino-1-(4-((6-amino-9H-purin-9-yl)methyl)-6-(3,4-difluorophenyl)pyridin-3-yl)piperidin-3-yl)-6-fluoropyridin-4-ol] | – | – | 117 nM | – | 1 to 10 nM | 1160 nM
Nc1ncnc2c1ncn2Cc1cc(-c2ccc(F)c(F)c2)ncc1N1CCC[C@](N)([C@@H]2COCCO2)C1 [Example 289, 9-((5-((R)-3-amino-3-((R)-1,4-dioxan-2-yl)piperidin-1-yl)-2-(3,4-difluorophenyl)pyridin-4-yl)methyl)-9H-purin-6-amine] | – | – | 492 nM | – | 1 to 10 nM | 2670 nM
COc1cc(F)c(-c2cc(Cn3cnc4c(N)ncnc43)c(N3CCC[C@](N)(c4cccc(Cl)n4)C3)cn2)c(F)c1 [Example 236, (R)-9-((5-(3-amino-3-(6-chloropyridin-2-yl)piperidin-1-yl)-2-(2,6-difluoro-4-methoxyphenyl)pyridin-4-yl)methyl)-9H-purin-6-amine] | – | – | 1390 nM | – | 10 to 1000 nM | 6300 nM
Nc1ncnc2c1ncn2Cc1cc(-c2cc(F)c(OC(F)F)cc2F)ncc1N1CCC[C@](N)([C@@H](O)C(F)F)C1 [Example 150, (R)-1-((R)-3-amino-1-(4-((6-amino-9H-purin-9-yl)methyl)-6-(4-(difluoromethoxy)-2,5-difluorophenyl)pyridin-3-yl)piperidin-3-yl)-2,2-difluoroethan-1-ol] | 10 to 1000 nM | – | 307 nM | 1670 nM | – | –
Nc1ncnc2c1ncn2Cc1cc(-c2ccc(F)cn2)ncc1N1CCC[C@](N)(c2cccc(Cl)n2)C1 [Example 196, (R)-9-((5-(3-amino-3-(6-chloropyridin-2-yl)piperidin-1-yl)-5′-fluoro-[2,2′-bipyridin]-4-yl)methyl)-9H-purin-6-amine] | – | – | 637 nM | – | 10 to 1000 nM | 2690 nM
